1 molecule from US20190032115A1, “GENETIC TESTING FOR […] GRAM-NEGATIVE PROTEUS AGAINST ANTIMICROBIAL AGENTS” (Ares Genetics GmbH, priority 2015, published 2019) can be followed below.

This test has as its system Proteus strains (583 clinical isolates). Description: Antimicrobial susceptibility testing (AST) on frozen reference panels, minimal inhibitory concentration (MIC) read visually. In kind it is cell-based, Proteus mirabilis, Proteus penneri and Proteus vulgaris. Particulars: classical AST. The procedure: The inventors selected 583 Proteus strains from the microbiology strain collection at Siemens Healthcare Diagnostics (West Sacramento, Calif.) for susceptibility testing and whole genome sequencing.
Frozen reference AST panels were prepared following Clinical Laboratory Standards Institute (CLSI) recommendations. The following antimicrobial agents (with μg/ml concentrations shown in parentheses) were included in the panels: Amoxicillin/K Clavulanate (0.5/0.25-64/32), Ampicillin (0.25-128), Ampicillin/Sulbactam (0.5/0.25-64/32), Aztreonam (0.25-64), Cefazolin (0.5-32), Cefepime (0.25-64), Cefotaxime (0.25-128), Ceftazidime (0.25-64), Ceftriaxone (0.25-128), Cefuroxime (1-64), Cephalothin (1-64), Ciprofloxacin (0.015-8), Ertepenem (0.12-32), Gentamicin (0.12-32), Imipenem (0.25-32), Levofloxacin (0.25-16), Meropenem (0.12-32), Piperacillin/Tazobactam (0.25/4-256/4), Tetracycline (0.5-64), Tobramycin (0.12-32), and Trimethoprim/Sulfamethoxazole (0.25/4.7-32/608). […]
Isolates were cultured on trypticase soy agar with 5% sheep blood (BBL, Cockeysville, Md.) and incubated in ambient air at 35±1° C. for 18-24 h. […] Panel results were read visually, and minimal inhibitory concentrations (MIC) were determined.
Proteus strains to be tested were seeded on agar plates and incubated under growth conditions for 24 hours. […] Bacterial growth was determined by observing turbidity. […]

On to `CC1(C)S[C@@H]2[C@H](NC(=O)[C@H](N)c3ccccc3)C(=O)N2[C@H]1C(=O)O` [ampicillin, Ampicillin], for which the “resistance of Proteus observed against the agent” value is listed as “high resistance”.
